Results on two substances are retold here after US9353155B2, “Cell-penetrating peptides” (Universite Pierre et Marie Curie (Paris 6), priority 2011, dated 2016).

The format of data set [1] is in vitro ADME, human. The procedure:
The ratio of intensity of each pick is represented, relative to its own control. The R residue was mutated to K (Mut1-DPT-C9h), N (Mut2-DPT-C9h) or A (Mut3-DPT-C9h). Round: control DPT-C9h peptide (SEQ ID NO:6), Square: Mut1-DPT-C9h, Triangle: Mut2-DPT-C9h, Diamond: Mut3-DPT-C9h.
Analysis Peptide Stability in Human Serum
Analysis of peptides degradation was done by Proteominer and Maldi-Tof as previously described.

The test system of data set [2] is tumoral B cells isolated from chronic lymphocyte leukemia patients. The note with it: cited from earlier work.
Data set [3] has as its system human breast cancer xenograft. The note with it: injected in mice bearing human breast cancer xenograft; cited from earlier work.
Another data set relates to human cell lines. The note with it: cited from earlier work.

No end group written: not given here.

On to “VKKKKIKAEIKIYVETLDDIFEQWAHSEDL [Mut3-DPT-C9h, VKKKKIKAEIKI-YVETLDDIFEQWAHSEDL]”, for which the “degradation upon contact with human serum” value in data set [1] is recorded as “not degraded”.

On to “VKKKKIKREIKI-YVETLDDIFEQWAHSEDL (VKKKKIKREIKIYVETLDDIFEQWAHSEDL; cell penetrating peptide) [DPT-C9h, control]”, for which the “effect on healthy cells” value in data set [2] is “without effect”. Moreover, the apoptotic effect entry in data set [2] (tumoral B cells isolated from chronic lymphocyte leukemia patients) is reported as “specific apoptotic effect”. In addition, the size of tumor result in data set [3] was “important reduction”. In addition, in the data set with human cell lines, the induction of apoptosis entry was “induces apoptosis”.
